In brackets after ≈: the same amount, converted by molar mass.
Assays:
[1] = test system: P. aeruginosa 27853; experiment: MIC by microdilution in cation-adjusted Mueller-Hinton Broth (NCCLS); assay type: cell-based; conditions: for MIC: Pseudomonas aeruginosa, 27853, pH 7.2-7.3; for MIC for P. aeruginosa 27853: pH 7.2-7.3
Description: (§1) These assays have been performed following the description given in “Methods for dilution Antimicrobial Susceptibility Tests for Bacteria that Grow Aerobically, 4th ed.; Approved standard: NCCLS Document M7-A4; National Committee for Clinical Laboratory Standards: Villanova, Pa., USA, 1997”. Minimal inhibitory concentrations (MICs; mg/l) were determined in cation-adjusted Mueller-Hinton Broth (BBL) by a microdilution method following NCCLS guidelines (National Committee for Clinical Laboratory Standards. Methods for Dilution Antimicrobial Susceptibility). The pH of the test medium was 7.2-7.3. All Example compounds were tested against several Gram positive and Gram negative bacteria such as S. aureus, E. faecalis, S. pneumoniae, M catarrhalis, A. baumanii, E. coli or P. aeruginosa.

[2] = test system: E. coli 25922; experiment: as above; assay type: cell-based; conditions: for MIC: Escherichia coli, 25922, pH 7.2-7.3; for MIC for E. coli 25922: pH 7.2-7.3
Description: as §1

Compound: COc1ccc2ccc(=O)n(C[C@H](N)[C@@H]3CC[C@@H](NCc4ccc5c(n4)NC(=O)CO5)CO3)c2c1 [Example 3, 6-({(3R,6S)-6-[(1S)-1-amino-2-(7-methoxy-2-oxo-2H-quinolin-1-yl)-ethyl]-tetrahydro-pyran-3-ylamino}-methyl)-4H-pyrido[3,2-b][1,4]oxazin-3-one]
- MIC [1]: 4 µg/mL (≈ 8.34 µM)
- MIC [2]: 0.25 µg/mL (≈ 0.521 µM)

Compound: COc1cnc2ccc(=O)n(C[C@H](N)[C@@H]3CC[C@@H](NCc4ccc5c(n4)NC(=O)CO5)CO3)c2c1 [Example 7, 6-({(3R,6S)-6-[(1S)-1-amino-2-(7-methoxy-2-oxo-2H-[1,5]naphthyridin-1-yl)-ethyl]-tetrahydro-pyran-3-ylamino}-methyl)-4H-pyrido[3,2-b][1,4]oxazin-3-one]
- MIC [1]: 4 µg/mL (≈ 8.32 µM)
- MIC [2]: 1 µg/mL (≈ 2.08 µM)

Compound: COc1cnc2ccc(=O)n(C[C@H](N)[C@@H]3CC[C@@H](NCc4ccc5c(n4)NC(=O)CS5)CO3)c2c1 [Example 6, 6-({(3R,6S)-6-[(1S)-1-amino-2-(7-methoxy-2-oxo-2H-[1,5]naphthyridin-1-yl)-ethyl]-tetrahydro-pyran-3-ylamino}-methyl)-4H-pyrido[3,2-b][1,4]thiazin-3-one]
- MIC [1]: 2 µg/mL (≈ 4.03 µM)
- MIC [2]: 0.25 µg/mL (≈ 0.503 µM)

Compound: COc1ccc2ccc(=O)n(C[C@H](N)[C@@H]3CC[C@@H](NCc4cc5c(cn4)OCCO5)CO3)c2n1 [Example 12, 1-((1S)-2-amino-2-{(2S,5R)-5-[(2,3-dihydro-[1,4]dioxino[2,3-c]pyridin-7-ylmethyl)-amino]-tetrahydro-pyran-2-yl}-ethyl)-7-methoxy-1H-[1,8]naphthyridin-2-one]
- MIC for P. aeruginosa 27853 [1]: 0.5 mg/L
- MIC for E. coli 25922 [2]: 0.063 mg/L

Compound: COc1ccc2ccc(=O)n(C[C@H](N)[C@H]3CC[C@H](NCc4ccc5c(n4)NC(=O)CS5)CC3)c2c1 [Example 1, 6-(trans-{4-[(1R)-1-amino-2-(7-methoxy-2-oxo-2H-quinolin-1-yl)-ethyl]-cyclohexylamino}-methyl)-4H-pyrido[3,2-b][1,4]thiazin-3-one]
- MIC [1]: 0.25 µg/mL (≈ 0.506 µM)
- MIC [2]: 0.063 µg/mL (≈ 0.128 µM)

Compound: COc1ccc2ncc(=O)n(C[C@H](N)[C@@H]3CC[C@@H](NCc4ccc5c(n4)NC(=O)CS5)CO3)c2c1 [Example 9, 6-({(3R,6S)-6-[(1S)-1-amino-2-(7-methoxy-2-oxo-2H-quinoxalin-1-yl)-ethyl]-tetrahydro-pyran-3-ylamino}-methyl)-4H-pyrido[3,2-b][1,4]thiazin-3-one]
- MIC [1]: 16 µg/mL (≈ 32.2 µM)
- MIC [2]: 0.25 µg/mL (≈ 0.503 µM)

Compound: COc1ccc2ccc(=O)n(CC(N)[C@H]3CC[C@H](NCc4ccc5c(n4)NC(=O)CO5)CC3)c2c1 (mixture of isomers) [Ref. Ex. 2, rac-6-(trans-{4-[1-amino-2-(7-methoxy-2-oxo-2H-quinolin-1-yl)-ethyl]-cyclohexylamino}-methyl)-4H-pyrido[3,2-b][1,4]oxazin-3-one]
- MIC [1]: 0.5 µg/mL (≈ 1.05 µM)
- MIC [2]: 0.5 µg/mL (≈ 1.05 µM)

Compound: COc1ccc2ccc(=O)n(C[C@H](N)[C@@H]3CC[C@@H](NCc4ccc5c(n4)NC(=O)CO5)CO3)c2n1 [Example 11, 6-({(3R,6S)-6-[(1S)-1-amino-2-(7-methoxy-2-oxo-2H-[1,8]naphthyridin-1-yl)-ethyl]-tetrahydro-pyran-3-ylamino}-methyl)-4H-pyrido[3,2-b][1,4]oxazin-3-one]
- MIC [1]: 8 µg/mL (≈ 16.6 µM)
- MIC [2]: 0.5 µg/mL (≈ 1.04 µM)

Compound: COc1ccc2ccc(=O)n(CC(N)[C@H]3CC[C@H](NCc4ccc5c(n4)NC(=O)CS5)CC3)c2c1 (mixture of isomers) [Ref. Ex. 1, rac-6-(trans-{4-[1-amino-2-(7-methoxy-2-oxo-2H-quinolin-1-yl)-ethyl]-cyclohexylamino}-methyl)-4H-pyrido[3,2-b][1,4]thiazin-3-one]
- MIC [1]: 0.5 µg/mL (≈ 1.01 µM)
- MIC [2]: 0.25 µg/mL (≈ 0.506 µM)

Compound: COc1ccc2ccc(=O)n(C[C@H](N)[C@@H]3CC[C@@H](NCc4ccc5c(n4)NC(=O)CS5)CO3)c2n1 [Example 10, 6-({(3R,6S)-6-[(1S)-1-amino-2-(7-methoxy-2-oxo-2H-[1,8]naphthyridin-1-yl)-ethyl]-tetrahydro-pyran-3-ylamino}-methyl)-4H-pyrido[3,2-b][1,4]thiazin-3-one]
- MIC [1]: 0.5 µg/mL (≈ 1.01 µM)
- MIC [2]: ≤ 0.031 µg/mL

Compound: COc1ccc2ccc(=O)n(C[C@H](N)[C@@H]3CC[C@@H](NC/C=C/c4cc(F)ccc4F)CO3)c2c1 [Example 4, 1-((2S)-2-amino-2-{(2S,5R)-5-[(E)-3-(2,5-difluoro-phenyl)-allylamino]-tetrahydro-pyran-2-yl}-ethyl)-7-methoxy-1H-quinolin-2-one]
- MIC [1]: 2 µg/mL (≈ 4.26 µM)
- MIC [2]: 0.063 µg/mL (≈ 0.134 µM)

Compound: COc1ccc2ccc(=O)n(C[C@H](N)[C@H]3CC[C@H](NCc4ccc5c(n4)NC(=O)CO5)CC3)c2c1 [Example 2, 6-(trans-{4-[(1R)-1-amino-2-(7-methoxy-2-oxo-2H-quinolin-1-yl)-ethyl]-cyclohexylamino}-methyl)-4H-pyrido[3,2-b][1,4]oxazin-3-one]
- MIC [1]: 0.25 µg/mL (≈ 0.523 µM)
- MIC [2]: 0.25 µg/mL (≈ 0.523 µM)

Compound: COc1cnc2ccc(=O)n(C[C@H](N)[C@@H]3CC[C@@H](NCc4ccc5c(c4)NC(=O)CO5)CO3)c2c1 [Example 8, 6-({(3R,6S)-6-[(1S)-1-amino-2-(7-methoxy-2-oxo-2H-[1,5]naphthyridin-1-yl)-ethyl]-tetrahydro-pyran-3-ylamino}-methyl)-4H-benzo[1,4]oxazin-3-one]
- MIC [1]: 4 µg/mL (≈ 8.34 µM)
- MIC [2]: 1 µg/mL (≈ 2.09 µM)

Compound: COc1ccc2ccc(=O)n(CC(N)C3CCC(NC/C=C/c4cc(F)ccc4F)CC3)c2c1 [Example 13, 1-((1R)-2-amino-2-{4-[(E)-3-(2,5-difluoro-phenyl)-allylamino]-cyclohexyl}-ethyl)-7-methoxy-1H-quinolin-2-one]
- MIC for P. aeruginosa 27853 [1]: 1 mg/L
- MIC for E. coli 25922 [2]: 0.25 mg/L

Compound: COc1ccc2ccc(=O)n(C[C@H](N)[C@@H]3CC[C@@H](NCc4ccc5c(n4)NC(=O)CS5)CO3)c2c1 [Example 5]
- MIC for P. aeruginosa 27853 [1]: 2 mg/L
- MIC for E. coli 25922 [2]: 0.125 mg/L

From patent US8349829B2, “[4-(1-amino-ethyl)-cyclohexyl]-methyl-amine and [6-(1-amino-ethyl)-tetrahydro-pyran-3-yl]-methyl-amine derivatives as antibacterials” (Actelion Pharmaceuticals Ltd., priority 2008, dated 2013)
